Data published in patent US20200341000A1, “METHOD OF SCREENING COMPOUNDS FOR TREATING CNS DISORDERS” (SAGE THERAPEUTICS, INC., priority 2017, published 2020).
Entries after “also recorded” stand apart in the source; their conditions may differ.

Experiments:
[1] = tested on: GT1-7 cells (co-express mPRα and GABAARs), β3 S408/9 phosphorylation; test: Immunoblot of β3 S408/9 phosphorylation in GT1-7 cells; type: cell-based; conditions: 100 nM, 15 min; n=6
Procedure: GT1-7 cells that co-express mPRα and GABAARs were used to measure the level of phosphorylation at S408/9 position of β3 subunit. Quantitative PCR analysis indicated the enrichment of the mPRα mRNA in GT1-7 cells (FIG. 15A upper, figure taken from Thomas and Pang 2012). Expression of mPRα was confirmed using western blotting. 10 and 15 μg of SDS-soluble extracts from GT1-7 cells were immunoblotted with an mPRα specific antibody (FIG. 15A lower).
GT1-7 cells were treated with 100 nM AllO or P4 for 15 min and immunoblotted with antibodies specifically recognizing β3, actin, and […] β3 subunit (pS408/9). The ratio of pS408/9 β3 subunit immunoreactivity were then normalized to levels seen in vehicle treated to controls, n=6.

[2] = tested on: tonic current in dentate gyms granule cells (DGGCs); test: Sustained (metabotropic) enhancement of tonic current in DGGCs after 15 min exposure and washout; type: cell-based, mice; conditions: protocol as in FIG. 3; n=6-8 cells
Procedure: Brain slices were prepared from 3- to 5-week-old male C57 mice. Mice were anesthetized with isoflurane, decapitated, and brains were rapidly removed and submerged in ice-cold cutting solution containing (mM): 126 NaCl, 2.5 KCl, 0.5 CaCl2, 2 MgCl2, 26 NaHCO3, 1.25 NaH2PO4, 10 glucose, 1.5 sodium pyruvate, and 3 kynurenic acid. Coronal 310 μm thick slices were cut with the vibratome VT1000S (Leica Microsystems, St Louis, Mo., USA). The slices were then transferred into incubation chamber filled with prewarmed (31-32° C.) oxygenated artificial cerebro-spinal fluid (ACSF) of the following composition (in mM): 126 NaCl, 2.5 KCl, 2 CaCl2, 2 MgCl2, 26 NaHCO3, 1.25 NaH2PO4, 10 glucose, 1.5 sodium pyruvate, 1 glutamine, 3 kynurenic acid and 0.005 GABA bubbled with 95% O2-5% CO2. Slices were allowed to recover at 32° C. for at least 1 hr before recording. Exogenous GABA was added in an attempt to standardize ambient GABA in the slice and provide an agonist source for newly inserted extrasynaptic GABAARs.
After recovery, a single slice was transferred to a submerged, dual perfusion recording chamber (Warner Instruments, Hamden, Conn., USA) on the stage of an upright microscope (Nikon FN-1) with a 40× water immersion objective equipped with DIC/IR optics. Slices were maintained at 32° C. and gravity-superfused with ACSF solution throughout experimentation and perfused at rate of 2 ml/min with oxygenated (O2/CO2 95/5%) ACSF.
Whole-cell currents were recorded from the dentate gyms granule cells (DGGCs) in 310-μm-thick coronal hippocampal slices. Patch pipettes (5-7MΩ) were pulled from borosilicate glass (World Precision Instruments) and filled with intracellular solution of the composition (in mM) as follows: 140 CsCl, 1 MgCl2, 0.1 EGTA, 10 HEPES, 2 Mg-ATP, 4 NaCl and 0.3 Na-GTP (pH=7.2 with CsOH). A 5 min period for stabilization after obtaining the whole-cell recording conformation (holding potential of −60 mV) was allowed before currents were recorded using an Axopatch 200B amplifier (Molecular Devices), low-pass filtered at 2 kHz, digitized at 20 kHz (Digidata 1440A; Molecular Devices), and stored for offline analysis.
For tonic current measurements, an all-points histogram was plotted for a 10 s period before and during 100 μM picrotoxin application, once the response reached a plateau level. Recordings with unstable baselines were discarded. Fitting the histogram with a Gaussian distribution gave the mean baseline current amplitude and the difference between the amplitudes before and during picrotoxin was considered to be the tonic current. The negative section of the all-points histogram which corresponds to the inward IPSCs was not fitted with a Gaussian distribution (Kretschmannova et al., 2013; Nusser and Mody, 2002). Series resistance and whole-cell capacitance were continually monitored and compensated throughout the course of the experiment. Recordings were eliminated from data analysis if series resistance increased by >20%. Spontaneous inhibitory post-synaptic currents (sIPSCs) were analyzed using the mini-analysis software (version 5.6.4; Synaptosoft, Decatur, Ga.). Minimum threshold detection was set to 3 times the value of baseline noise signal. To assess sIPSC kinetics, the recording trace was visually inspected and only events with a stable baseline, sharp rising phase, and single peak were used to negate artifacts due to event summation. Only recordings with a minimum of 200 events fitting these criteria were analyzed. sIPSCs amplitude, and frequency from each experimental condition was pooled and expressed as mean±SEM. To measure sIPSC decay, 100 consecutive events were averaged and the decay was fitted to a double exponential and the weighted decay constant (tw) was determined. Statistical analysis was performed by using Student t-test (paired and unpaired where appropriate), where p<0.05 is considered significant.

[3] = tested on: GABAA receptor β3 subunit S408/9 phosphorylation; test: Immunoblot of β3 S408/9 phosphorylation in hippocampal slices; type: cell-based, mice; conditions: 100 nM
Procedure: Hippocampi were dissected out of acute slices from 8 to 12 week old C57/B16 mice and lysed with phosphate buffer including: 20 mM Tris-HCl, 150 mM NaCl, 5 mM EDTA, 10 mM NaF, 2 mM Na3VO4, 10 mM pyrophosphate, 0.1% SDS and 1% Triton after drug treatment. The β3 subunit was isolated using immunoprecipitation with β3 antibodies, after correction for protein content and the specific activity of labeling. Results were attained by SDS/PAGE followed by autoradiography (Abramian et al., 2010). For biotinylation experiments hippocampi were dissected out of acute slices from 8 to 12 week old C57/B16 mice and incubated in artificial cerebrospinal fluid (ACSF) described above at 30° C. for 1 h for recovery before experimentation. Slices were then placed on ice and incubated for 30 min with 1 mg/mL NHS-SS-biotin (Pierce). Excess biotin was removed by a 50 mM glycine quenching buffer, followed by washing of slices three times in ice-cold ACSF. The tissue was snap frozen on dry ice for 5 min, thawed at 4° C. and lysed. The lysates were solubilized with 2% Triton at 4° C. on a rotating wheel for 1 h. The insoluble material was removed by centrifugation, and 350-500 μg of protein lysate were incubated with NeutrAvidin beads (Pierce) for 18-24 h at 4° C. Bound material was eluted with sample buffer and subjected to SDS/PAGE and then immunoblotted with the indicated antibodies. Blots were then quantified using the CCD-based ChemiDoc XRS ? system. Antibodies against the β3 subunit and the phospho-β3 antibody were generated and verified by the laboratory of S.J.M. (Vien et al., 2015).
To produce antibodies specific for phosphorylated S443, rabbits were injected with a synthetic peptide corresponding to residues […] of the murine α4 subunit in which the serine residue corresponding to S443 was chemically phosphorylated; […]. Hippocampal slices were treated with vehicle (Con), or SGE-516 for 20 min. Slices were immunoblotted with pS408/9, β3, or actin antibodies. The ratio of pS408/9/β3 immunoreactivity was then normalized to control slices (100%=the line).
Hippocampal slices were treated with 100 nM ALLO or P4 (progesterone), and S408/9 phosphorylation was then determined as detailed above, n=4 slices (FIG. 18D). Hippocampal slices were treated with 100 nM ORG (FIG. 18E). S408/9 phosphorylation was examined using immunoblotting.

[4] = tested on: tonic current in dentate gyms granule cells (DGGCs); conditions: Abramian et al., 2010, 2014; cited from earlier work

Structure (SMILES) | S408/9 phosphorylation (pS408/9/β3) in GT1-7 cells [1] | amplitude and density of GABAergic tonic current at varying doses [2] | S408/9 phosphorylation in hippocampal slices [3] | sustained effects on GABAergic tonic current [4]
CC(=O)[C@H]1CC[C@H]2[C@@H]3CCC4=CC(=O)CC[C@]4(C)[C@H]3CC[C@]12C [P4, Progesterone] | increase | dosage-dependent effect; also recorded: dosage dependent effect | regulated | –
C[C@]12CC[C@@H](O)C[C@H]1CC[C@@H]1[C@@H]2CC[C@]2(C)[C@@H](C(=O)CO)CC[C@@H]12 [THDOC, Tetrahydrodeoxy- corticosterone] | – | – | – | long lasting increase
